Experimental data as given in paper PMC3048469 (FEBS letters, 2011).
Read-outs that look alike come from different tables or passages of the source.

Target: Rv1086 (Mycobacterium tuberculosis, UniProt P9WFF5)
Assay type: biochemical
Details: 5 mM MgCl2, pH 7.0, 37 °C

Rv1086, sequence (P9WFF5 whole entry): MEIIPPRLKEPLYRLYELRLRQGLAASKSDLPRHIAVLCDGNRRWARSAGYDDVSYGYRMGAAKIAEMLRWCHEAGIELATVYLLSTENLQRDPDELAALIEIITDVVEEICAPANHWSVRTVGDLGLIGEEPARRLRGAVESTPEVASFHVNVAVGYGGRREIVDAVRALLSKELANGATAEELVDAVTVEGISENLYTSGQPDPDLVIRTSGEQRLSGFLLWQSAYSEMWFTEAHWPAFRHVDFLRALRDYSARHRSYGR

| Compound | GC-MS of dephosphorylated product (100 μM DMAPP, 100 μM IPP, 0.3% Triton X-100) | GC-MS of dephosphorylated product (100 μM GPP, co-substrate IPP) |
| --- | --- | --- |
| CC(C)=CCOP(=O)(O)OP(=O)(O)O [DMAPP] | (Z,E)-FPP also was produced by Rv1086 from IPP and DMAPP in the absence of Rv0989 |  |
| CC(C)=CCC/C(C)=C/COP(=O)(O)OP(=O)(O)O [GPP] |  | Rv1086 assayed in the presence of authentic GPP, GPP synthesized by Rv0989c, or DMAPP |
